One compound from publication PMC3657136, “An antibacterial from Hypericum acmosepalum inhibits ATP-dependent MurE ligase from Mycobacterium tuberculosis” (International Journal of Antimicrobial Agents, 2012) can be followed below.

The target of the assay is T1, ATP-dependent MurE ligase (Mycobacterium tuberculosis, UniProt P9WJL3).
T1 sequence (P9WJL3 1-535): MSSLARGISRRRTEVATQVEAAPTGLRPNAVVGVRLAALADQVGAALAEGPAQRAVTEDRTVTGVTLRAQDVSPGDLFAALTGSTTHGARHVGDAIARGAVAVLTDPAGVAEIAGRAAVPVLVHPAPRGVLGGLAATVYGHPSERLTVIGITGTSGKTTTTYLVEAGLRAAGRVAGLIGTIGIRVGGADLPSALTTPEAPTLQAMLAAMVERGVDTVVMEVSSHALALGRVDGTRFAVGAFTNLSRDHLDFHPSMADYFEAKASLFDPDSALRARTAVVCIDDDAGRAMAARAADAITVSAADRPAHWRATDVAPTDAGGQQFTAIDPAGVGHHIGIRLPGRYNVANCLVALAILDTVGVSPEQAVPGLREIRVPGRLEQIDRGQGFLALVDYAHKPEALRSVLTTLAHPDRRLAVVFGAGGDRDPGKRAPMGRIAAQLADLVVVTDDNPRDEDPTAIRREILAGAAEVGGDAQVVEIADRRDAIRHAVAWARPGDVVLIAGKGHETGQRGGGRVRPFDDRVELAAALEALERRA
Put plainly: biochemical.

For `C=CC(C)(C)c1c(OC)oc(-c2ccccc2)cc1=O` [compound 2, hyperenone A], the IC50 (as a rule, the midpoint of a concentration-inhibition curve) is 320 µM.
